Results as given in ChEMBL document CHEMBL1137234, “Correlation between brain/plasma ratios and efficacy in neuropathic pain models of selective metabotropic glutamate receptor 1 antagonists” (Bioorg Med Chem Lett, 2006).

What was measured:
Rattus norvegicus [1] = assay: Efficacy in ip dosed rat skin incision model after 30 mins; format: functional; conditions: 0.5 h
[2] = biological target: Metabotropic glutamate receptor 7 (Homo sapiens, UniProt Q14831); assay: Antagonist activity at human mGluR7 expressed in 1321N1 cells; format: functional, cell-based
Rattus norvegicus [3] = assay: Drug level in rat brain at 30 umol/kg, ip; format: ADME, organism-based; conditions: in vivo
Rattus norvegicus [4] = assay: Efficacy in ip dosed rat formalin model after 30 mins; format: functional; conditions: 0.5 h
Rattus norvegicus [5] = assay: Efficacy in ip dosed rat Carrageenan model after 30 mins; format: functional; conditions: 0.5 h
Rattus norvegicus [6] = assay: Activity in ip dosed rat Rotarod model; format: functional
Rattus norvegicus [7] = species on record: Rattus norvegicus; assay: Free drug level in rat brain; format: ADME, organism-based; conditions: in vivo
[8] = biological target: Metabotropic glutamate receptor 2 (Homo sapiens, UniProt Q14416); assay: Antagonist activity at human mGluR2 expressed in 1321N1 cells; format: functional, cell-based
[9] = biological target: Metabotropic glutamate receptor 5 (Rattus norvegicus, UniProt P31424); assay: Antagonist activity at rat mGluR5 expressed in 1321N1 cells; format: functional, cell-based
[10] = biological target: Metabotropic glutamate receptor 1 (Rattus norvegicus, UniProt P23385); assay: Antagonist activity at rat mGluR1 expressed in 1321N1 cells; format: functional, cell-based
[11] = biological target: Metabotropic glutamate receptor 4 (Homo sapiens, UniProt Q14833); assay: Antagonist activity at human mGluR4 expressed in 1321N1 cells; format: functional, cell-based
Rattus norvegicus [12] = assay: Efficacy in ip dosed rat osteoarthritic pain model after 30 mins; format: functional; conditions: 0.5 h
Rattus norvegicus [13] = assay: Efficacy in ip dosed rat Chung spinal nerve L5/L6 ligation pain model after 30 mins; format: functional; conditions: 0.5 h
Rattus norvegicus [14] = assay: Activity in ip dosed rat locomotor model; format: functional
Rattus norvegicus [15] = assay: Efficacy in ip dosed rat CFA model after 30 mins; format: functional; conditions: 0.5 h
Rattus norvegicus [16] = assay: Efficacy in rat Chung spinal nerve L5/L6 ligation pain model after 30 mins at 100 umol/kg, ip; format: functional
Rattus norvegicus [17] = species on record: Rattus norvegicus; assay: Protein binding in rat brain; format: ADME, organism-based; conditions: in vivo

Metabotropic glutamate receptor 1, sequence (P23385 whole entry): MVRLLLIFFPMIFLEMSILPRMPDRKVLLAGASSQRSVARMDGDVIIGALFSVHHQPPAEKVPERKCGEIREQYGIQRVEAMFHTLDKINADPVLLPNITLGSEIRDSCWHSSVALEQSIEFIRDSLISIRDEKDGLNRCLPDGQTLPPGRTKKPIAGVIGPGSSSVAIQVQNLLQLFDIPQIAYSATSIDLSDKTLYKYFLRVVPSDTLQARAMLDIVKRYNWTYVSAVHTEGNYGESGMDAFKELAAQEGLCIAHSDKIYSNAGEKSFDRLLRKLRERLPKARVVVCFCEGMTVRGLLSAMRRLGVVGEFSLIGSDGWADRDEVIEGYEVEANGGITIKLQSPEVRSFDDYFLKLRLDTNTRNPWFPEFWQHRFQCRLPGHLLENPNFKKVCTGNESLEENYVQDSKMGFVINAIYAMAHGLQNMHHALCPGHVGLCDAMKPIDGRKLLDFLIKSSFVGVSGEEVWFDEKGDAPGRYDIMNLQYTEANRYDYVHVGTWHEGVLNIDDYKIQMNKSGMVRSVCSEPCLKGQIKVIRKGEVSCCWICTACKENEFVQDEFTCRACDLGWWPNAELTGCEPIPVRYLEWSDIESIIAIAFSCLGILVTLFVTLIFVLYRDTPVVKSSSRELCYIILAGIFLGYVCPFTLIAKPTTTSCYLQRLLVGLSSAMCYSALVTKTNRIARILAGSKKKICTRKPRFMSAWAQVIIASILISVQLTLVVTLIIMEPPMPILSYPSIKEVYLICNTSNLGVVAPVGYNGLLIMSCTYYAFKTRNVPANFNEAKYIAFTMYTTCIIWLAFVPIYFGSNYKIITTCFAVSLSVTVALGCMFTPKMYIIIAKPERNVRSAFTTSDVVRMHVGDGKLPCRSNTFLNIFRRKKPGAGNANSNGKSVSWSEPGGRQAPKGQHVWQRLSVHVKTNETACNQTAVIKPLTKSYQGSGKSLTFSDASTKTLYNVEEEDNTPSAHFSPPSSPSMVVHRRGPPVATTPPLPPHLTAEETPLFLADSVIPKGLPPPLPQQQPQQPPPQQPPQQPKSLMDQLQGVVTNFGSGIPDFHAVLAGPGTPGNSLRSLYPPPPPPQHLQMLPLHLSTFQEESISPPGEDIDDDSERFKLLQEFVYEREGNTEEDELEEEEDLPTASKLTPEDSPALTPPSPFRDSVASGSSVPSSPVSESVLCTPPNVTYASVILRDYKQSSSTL
Metabotropic glutamate receptor 5, sequence (P31424 whole entry): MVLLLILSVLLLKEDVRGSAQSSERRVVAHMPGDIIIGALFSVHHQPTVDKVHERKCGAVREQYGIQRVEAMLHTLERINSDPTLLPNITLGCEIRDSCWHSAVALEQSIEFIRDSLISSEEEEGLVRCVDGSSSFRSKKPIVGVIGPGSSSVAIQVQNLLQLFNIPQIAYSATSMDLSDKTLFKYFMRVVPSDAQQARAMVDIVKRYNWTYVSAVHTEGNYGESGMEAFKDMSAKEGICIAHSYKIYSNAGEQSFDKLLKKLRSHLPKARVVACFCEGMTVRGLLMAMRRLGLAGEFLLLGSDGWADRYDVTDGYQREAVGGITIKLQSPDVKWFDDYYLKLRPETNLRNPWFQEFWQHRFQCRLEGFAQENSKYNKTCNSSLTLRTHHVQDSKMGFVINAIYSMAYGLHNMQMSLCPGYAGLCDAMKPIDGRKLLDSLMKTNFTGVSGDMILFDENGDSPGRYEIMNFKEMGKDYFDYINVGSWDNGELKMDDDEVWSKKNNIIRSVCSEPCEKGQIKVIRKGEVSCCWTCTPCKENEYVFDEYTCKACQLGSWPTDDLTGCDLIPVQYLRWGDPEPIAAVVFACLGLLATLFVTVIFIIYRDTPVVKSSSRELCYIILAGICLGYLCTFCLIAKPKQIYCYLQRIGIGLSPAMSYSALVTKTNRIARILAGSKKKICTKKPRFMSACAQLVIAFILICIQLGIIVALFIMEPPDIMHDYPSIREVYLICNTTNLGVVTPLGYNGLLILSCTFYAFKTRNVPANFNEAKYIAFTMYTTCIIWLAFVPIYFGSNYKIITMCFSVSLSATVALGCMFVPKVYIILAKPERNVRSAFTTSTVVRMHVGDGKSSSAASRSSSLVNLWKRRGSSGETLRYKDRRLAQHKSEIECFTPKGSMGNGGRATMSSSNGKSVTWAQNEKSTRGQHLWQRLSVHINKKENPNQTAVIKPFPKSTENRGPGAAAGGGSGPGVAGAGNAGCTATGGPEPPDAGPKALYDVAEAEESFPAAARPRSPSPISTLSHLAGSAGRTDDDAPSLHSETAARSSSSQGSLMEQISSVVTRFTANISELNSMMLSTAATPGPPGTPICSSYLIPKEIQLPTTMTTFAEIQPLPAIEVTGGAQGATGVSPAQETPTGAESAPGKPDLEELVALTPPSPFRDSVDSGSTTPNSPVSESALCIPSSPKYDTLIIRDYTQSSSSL
Metabotropic glutamate receptor 2, sequence (Q14416 whole entry): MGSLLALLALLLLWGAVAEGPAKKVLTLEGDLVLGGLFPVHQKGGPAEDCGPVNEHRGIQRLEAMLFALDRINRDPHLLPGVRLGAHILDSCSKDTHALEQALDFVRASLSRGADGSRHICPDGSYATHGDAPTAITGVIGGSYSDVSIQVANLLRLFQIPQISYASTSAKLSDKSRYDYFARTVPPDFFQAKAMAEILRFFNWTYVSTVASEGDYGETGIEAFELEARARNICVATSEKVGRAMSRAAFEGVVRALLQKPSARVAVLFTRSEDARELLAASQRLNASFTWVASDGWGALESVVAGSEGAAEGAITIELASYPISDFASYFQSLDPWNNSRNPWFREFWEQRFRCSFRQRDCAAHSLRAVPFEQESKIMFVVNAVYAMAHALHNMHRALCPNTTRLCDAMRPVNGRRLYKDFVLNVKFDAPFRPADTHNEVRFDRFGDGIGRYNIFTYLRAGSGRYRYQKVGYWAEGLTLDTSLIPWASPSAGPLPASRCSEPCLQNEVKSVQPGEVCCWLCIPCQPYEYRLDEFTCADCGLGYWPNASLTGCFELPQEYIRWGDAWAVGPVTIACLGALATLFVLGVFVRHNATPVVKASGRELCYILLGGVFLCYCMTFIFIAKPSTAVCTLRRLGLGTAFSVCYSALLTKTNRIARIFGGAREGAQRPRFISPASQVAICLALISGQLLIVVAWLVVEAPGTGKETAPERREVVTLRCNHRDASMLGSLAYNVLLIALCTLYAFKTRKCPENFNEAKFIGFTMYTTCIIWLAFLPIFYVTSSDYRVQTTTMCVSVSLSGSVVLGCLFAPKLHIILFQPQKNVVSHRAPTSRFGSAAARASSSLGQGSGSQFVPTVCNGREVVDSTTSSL
Metabotropic glutamate receptor 4, sequence (Q14833 whole entry): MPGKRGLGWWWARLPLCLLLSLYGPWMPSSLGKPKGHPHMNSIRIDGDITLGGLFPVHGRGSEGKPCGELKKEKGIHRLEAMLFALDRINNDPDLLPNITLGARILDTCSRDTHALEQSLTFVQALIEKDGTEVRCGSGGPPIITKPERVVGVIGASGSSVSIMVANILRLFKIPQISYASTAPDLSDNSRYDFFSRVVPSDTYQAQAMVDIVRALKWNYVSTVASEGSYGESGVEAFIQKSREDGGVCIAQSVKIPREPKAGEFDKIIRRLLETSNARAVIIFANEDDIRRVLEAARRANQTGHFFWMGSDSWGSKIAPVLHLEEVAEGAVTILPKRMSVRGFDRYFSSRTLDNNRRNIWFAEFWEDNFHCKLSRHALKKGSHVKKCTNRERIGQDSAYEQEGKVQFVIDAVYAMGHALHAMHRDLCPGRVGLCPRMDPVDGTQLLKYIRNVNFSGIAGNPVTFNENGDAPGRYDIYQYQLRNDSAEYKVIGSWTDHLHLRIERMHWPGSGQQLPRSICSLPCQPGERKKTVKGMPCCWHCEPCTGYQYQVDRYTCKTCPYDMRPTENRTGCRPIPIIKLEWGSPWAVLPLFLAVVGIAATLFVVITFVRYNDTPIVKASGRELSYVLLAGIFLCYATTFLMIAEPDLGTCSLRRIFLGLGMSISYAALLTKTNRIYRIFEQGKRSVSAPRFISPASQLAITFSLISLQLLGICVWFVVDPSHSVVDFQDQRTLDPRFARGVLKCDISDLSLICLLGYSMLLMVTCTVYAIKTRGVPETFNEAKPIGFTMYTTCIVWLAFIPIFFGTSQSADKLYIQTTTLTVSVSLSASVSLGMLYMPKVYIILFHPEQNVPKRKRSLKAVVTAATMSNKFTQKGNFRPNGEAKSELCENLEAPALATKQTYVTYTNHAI
Metabotropic glutamate receptor 7, sequence (Q14831 whole entry): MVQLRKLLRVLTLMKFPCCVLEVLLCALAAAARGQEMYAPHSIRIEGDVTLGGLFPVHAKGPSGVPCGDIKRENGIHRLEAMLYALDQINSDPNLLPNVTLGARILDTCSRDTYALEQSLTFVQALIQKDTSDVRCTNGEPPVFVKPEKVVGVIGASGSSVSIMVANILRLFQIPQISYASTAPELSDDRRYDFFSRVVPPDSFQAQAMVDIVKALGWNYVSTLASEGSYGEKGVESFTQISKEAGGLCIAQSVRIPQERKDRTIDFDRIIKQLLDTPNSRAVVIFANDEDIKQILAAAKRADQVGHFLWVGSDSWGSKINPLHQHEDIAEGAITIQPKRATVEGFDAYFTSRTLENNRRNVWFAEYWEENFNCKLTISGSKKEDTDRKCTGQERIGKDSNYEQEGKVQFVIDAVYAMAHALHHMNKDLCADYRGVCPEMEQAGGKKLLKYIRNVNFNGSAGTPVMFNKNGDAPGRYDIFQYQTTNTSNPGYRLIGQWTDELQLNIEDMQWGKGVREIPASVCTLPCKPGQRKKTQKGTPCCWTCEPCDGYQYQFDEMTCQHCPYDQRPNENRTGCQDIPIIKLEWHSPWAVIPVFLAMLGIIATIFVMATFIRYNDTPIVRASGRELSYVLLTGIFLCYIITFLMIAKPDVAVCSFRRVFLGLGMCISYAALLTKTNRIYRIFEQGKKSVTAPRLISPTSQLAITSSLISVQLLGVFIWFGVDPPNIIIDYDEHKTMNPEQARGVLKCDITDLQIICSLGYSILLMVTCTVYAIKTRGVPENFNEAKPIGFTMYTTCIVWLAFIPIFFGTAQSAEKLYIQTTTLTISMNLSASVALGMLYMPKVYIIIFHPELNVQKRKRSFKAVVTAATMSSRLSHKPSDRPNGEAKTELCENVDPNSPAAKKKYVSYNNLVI

Row | SMILES | IC50 [2] | Activity (Rattus norvegicus [3]) | Activity (Rattus norvegicus [7]) | IC50 [8] | IC50 [9] | IC50 [10] | IC50 [11] | Activity (Rattus norvegicus [17]) | ED50 (Rattus norvegicus [1]) | ED50 (Rattus norvegicus [4]) | ED50 (Rattus norvegicus [5]) | ED50 (Rattus norvegicus [6]) | ED50 (Rattus norvegicus [12]) | ED50 (Rattus norvegicus [13]) | ED50 (Rattus norvegicus [14]) | ED50 (Rattus norvegicus [15]) | Efficacy (Rattus norvegicus [16])
1 | CCc1ccc(-n2cnc3c(sc4nccc(N(C)C)c43)c2=O)cc1 | > 10000 nM | 1180 ng/g | 25.5 ng/g | > 10000 nM | 1330 nM | 5 nM | > 10000 nM | 97.8% | 47 µmol/kg | 19 µmol/kg | 11 µmol/kg | > 300 µmol/kg | 29 µmol/kg | > 100 µmol/kg | > 100 µmol/kg | 15 µmol/kg | 41%
2 | CCc1ccc(-n2cnc3c(sc4nccc(N(C)CCc5ccccn5)c43)c2=O)cc1 | – | – | – | – | > 10000 nM | 52 nM | – | – | – | – | – | – | – | – | – | – | 11%
3 | Cc1ccc(-n2cnc3c(sc4cncc(N(C)C)c43)c2=O)cc1F | – | 125 ng/g | 0.13 ng/g | – | > 10000 nM | 21 nM | – | 99.9% | – | – | – | – | – | 55 µmol/kg | – | – | 72%

Further lines, with some results ahead:

Row | IC50 [2] | Activity (Rattus norvegicus [3]) | Activity (Rattus norvegicus [7]) | IC50 [8] | IC50 [9] | IC50 [10] | IC50 [11] | Activity (Rattus norvegicus [17]) | SMILES | ED50 (Rattus norvegicus [1]) | ED50 (Rattus norvegicus [4]) | ED50 (Rattus norvegicus [5]) | ED50 (Rattus norvegicus [6]) | ED50 (Rattus norvegicus [12]) | ED50 (Rattus norvegicus [13]) | ED50 (Rattus norvegicus [14]) | ED50 (Rattus norvegicus [15]) | Efficacy (Rattus norvegicus [16])
4 | – | – | – | – | > 10000 nM | 33 nM | – | – | C[N+](C)([O-])c1ccnc2sc3c(=O)n(N4CCCCCC4)cnc3c12 | – | – | – | – | – | – | – | – | 12%
5 | – | 851 ng/g | – | – | > 10000 nM | 1 nM | – | – | CN(C)c1ccnc2sc3c(=O)n(N4CCCCCC4)cnc3c12 | – | – | – | – | – | 22 µmol/kg | – | – | 100%
